Assay results taken from patent US20110160147A1, “NOVEL DUAL TARGETING A[…]” (priority 2008, published 2011).
Where two headings read alike, the source gives them in different places.

Tests used:
[1] = test system: A2780 ovarian carcinoma cells; assay: Cytotoxicity, sulphorodamine B test (A2780); type: cell-based, human; details: A2780, 72 h of treatment; read-out: IC50 ± SD, cytotoxicity
Protocol: (§1) To evaluate the effect of the compound on survival cells, the sulphorodamine B test was used. To measure the effects of the compounds on cell growth, PC3 human prostate carcinoma and A2780 human ovarian carcinoma cells were used. A2780 and PC3 tumour cells were grown RPMI 1640 containing 10% fetal bovine serum (GIBCO).
(§2) Tumour cells were seeded in 96-well tissue culture plates at approximately 10% confluence and were allowed to attach and recover for at least 24 h. Varying concentrations of the drugs were then added to each well to calculate their IC50 value (the concentration which inhibits the 50% of cell survival). The plates were incubated at 37° C. for 72 h. At the end of the treatment, the plates were washed by removal of the supernatant and addition of PBS 3 times. 200 μl PBS and 50 μl of cold 80% trichloroacetic acid (TCA) were added. The plates were incubated on ice for at least 1 h. TCA was removed and the plates were washed 3 times by immersion in distilled-water and dried on paper and at 40° C. for 5 min. Then 200 μl of 0.4% sulphorodamine B in 1% acetic acid were added. The plates were incubated at RT for further 30 min. Sulphorodamine B was removed, the plates were washed by immersion in 1% acetic acid 3 times, then they were dried on paper and at 40° C. for 5 min. Then 200 μl Tris 10 mM were added, the plates were kept under stirring for 20 min. The cell survival was determined by means of optical density using a Multiskan spectrofluorimeter at 540 nm. The amount of cells killed was calculated as the percentage decrease in sulphorodamine B binding compared with control cultures.
(§3) The IC50 values were calculated with the “ALLFIT” program.

[2] = test system: PC3 prostate carcinoma cells; type: cell-based, human; details: PC3, 1 h of treatment; read-out: IC50 ± SD, antiadhesive effect to vitronectin
Protocol: (§4) A2780 human ovarian carcinoma and PC3 prostate carcinoma cells were grown in medium culture RPMI 1640 containing 10% fetal bovine serum and 50 μg/ml gentamycin sulfate. Cells were maintained in a 37° C. incubator with saturated humidity and an atmosphere of 95% air and 5% CO2. A2780 tumour cell line expresses high levels of αvβ5 integrin, and PC3 low levels of both integrins.
(§5) In 96-well tissue culture plates, 50 μl/well of a solution of vitronectin (5 μg/ml) were added for 2 h at room temperature. The solutions were removed upsetting the plates. 50 μl/well of a solution 1% BSA were added for 1 h at RT. The plates were washed by addition of 100 μl/well of medium culture RPMI 1640 without fetal calf serum (FCS). The washing was repeated twice. The molecules were added at different concentrations in the range between 0.039 μM and 20 μM. The solutions were prepared by dilution 1:2 in medium culture without FCS. Tumour cells in the flasks were washed in saline solution before to be detached by scraper, by the addition of 5 ml of medium culture without FCS and 1% BSA. Tumour cells were counted after resuspension and added at an appropriate cellular density (40000-50000 cells/well). The plates were incubated for 1 h at 37° C. in humidified incubator with 5% CO2. Then, the solutions were removed upsetting the plates and washed once with 200 μl/well of PBS with Ca^2+ e Mg^2+. Tumour cells were fixed with 100 μl of a solution 4% paraformaldehyde in 0.2 M Sorensen phosphate buffer pH 7.2-7.4 for 10 min at RT The plates were upset and 100 μl of 1% Toluidine Blu solution were added for 10 min at RT The plates were washed twice by immersion in bi-distilled water and then dried at 60° C. in thermostat incubator (Kottermann). 100 μl/well of 1% SDS were added. The plates were kept under stirring for 20 min at RT and were then evaluated by Victor 1420 multilabel counter (Wallac) at 600 nm.
(§6) The IC50 value as parameter to measure the inhibiting effect of the molecules on tumour cell adhesion to vitronectin was evaluated using “ALLFIT” computer program.

[3] = test system: A2780 ovarian carcinoma cells; type: cell-based, human; details: A2780, 1 h of treatment; read-out: IC50 ± SD, antiadhesive effect to vitronectin
Protocol: as §4, §5, §6

[4] = test system: PC3 prostate carcinoma cells; assay: Cytotoxicity, sulphorodamine B test (PC3); type: cell-based, human; details: PC3, 72 h of treatment; read-out: IC50 ± SD, cytotoxicity
Protocol: as §1, §2, §3

[5] = target: αvβ3 receptor (Homo sapiens, UniProt P05106+P06756); assay: Solid-phase binding assay, inhibition of [125I]Echistatin binding to αvβ3 receptor
Protocol: The receptor binding assays were performed as described (Orlando R. A., et al., J. Biol. Chem. 1991, 266, 19543). αvβ3 and αvβ5 were diluted to 500 ng/ml and 1 μg/ml, respectively, in coating buffer (20 mM Tris, pH 7.4, 150 mM NaCl, 2 mM CaCl2, 1 mM MgCl2, 1 mM MnCl2) and an aliquot of 100 μL was added to a 96-well microtiter plate and incubated overnight at 4° C. The plate was washed once with blocking/binding buffer (50 mM Tris, pH 7.4, 100 mM NaCl, 2 mM CaCl2, 1 mM MgCl2, 1 mM MnCl2, 1% bovine serum albumin), and then was incubated for additional 2 h at RT The plate was rinsed twice with the same buffer and incubated for 3 h at RT with radiolabeled ligand [^125I]Echistatin (Amersham Pharmacia Biotech) 0.05 nM (0.1 nM for αv β5) in the presence of competing inhibitors. After the incubation, the wells were washed and radioactivity was determined with a gamma-counter (Packard). Non-specific binding of ligand was determined with molar excess (200 nM) of cold echistatin.
The IC50 values reported in Tables 1 and 2 were calculated as the concentrations of compounds required for 50% inhibition of echistatin binding and were estimated by the Prism GraphPad program. The Ki of the competing ligands were calculated according to the Cheng-Prusoff equation (Cheng Y. C., et al., Biochem. Pharmacol., 1973, 22, 3099). Values are the mean±log standard error of triplicate determinations from two independent experiments.

Sequence of αvβ3 receptor (P06756 31-889 limits assumed): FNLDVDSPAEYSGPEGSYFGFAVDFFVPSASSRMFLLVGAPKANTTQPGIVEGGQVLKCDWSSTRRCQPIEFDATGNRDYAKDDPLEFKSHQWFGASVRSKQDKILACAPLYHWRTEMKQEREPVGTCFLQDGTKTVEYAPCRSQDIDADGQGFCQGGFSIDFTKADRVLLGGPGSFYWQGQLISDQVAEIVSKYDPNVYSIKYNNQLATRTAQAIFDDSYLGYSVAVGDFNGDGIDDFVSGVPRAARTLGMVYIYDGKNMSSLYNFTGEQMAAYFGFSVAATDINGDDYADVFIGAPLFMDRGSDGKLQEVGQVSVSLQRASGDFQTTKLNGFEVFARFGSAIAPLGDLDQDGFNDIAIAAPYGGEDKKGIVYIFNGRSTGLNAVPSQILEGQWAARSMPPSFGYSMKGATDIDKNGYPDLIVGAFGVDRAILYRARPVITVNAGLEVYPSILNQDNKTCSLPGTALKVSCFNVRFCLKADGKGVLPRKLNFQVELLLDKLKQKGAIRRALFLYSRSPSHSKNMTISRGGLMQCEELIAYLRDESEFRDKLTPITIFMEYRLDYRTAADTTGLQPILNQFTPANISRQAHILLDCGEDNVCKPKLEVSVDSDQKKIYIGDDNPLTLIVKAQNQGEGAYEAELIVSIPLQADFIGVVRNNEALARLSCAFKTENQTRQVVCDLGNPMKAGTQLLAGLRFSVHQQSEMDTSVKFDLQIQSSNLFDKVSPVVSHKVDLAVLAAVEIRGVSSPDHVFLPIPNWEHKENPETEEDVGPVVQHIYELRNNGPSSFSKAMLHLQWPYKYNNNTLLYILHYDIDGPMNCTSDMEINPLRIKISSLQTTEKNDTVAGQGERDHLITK
Sequence of αvβ3 receptor (P06756 891-1048 partner limits assumed): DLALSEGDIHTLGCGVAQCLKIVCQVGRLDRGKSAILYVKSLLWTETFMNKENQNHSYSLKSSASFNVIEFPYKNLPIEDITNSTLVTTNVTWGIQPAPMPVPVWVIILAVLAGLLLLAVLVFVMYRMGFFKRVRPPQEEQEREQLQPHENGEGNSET
Sequence of αvβ3 receptor (P05106 27-788): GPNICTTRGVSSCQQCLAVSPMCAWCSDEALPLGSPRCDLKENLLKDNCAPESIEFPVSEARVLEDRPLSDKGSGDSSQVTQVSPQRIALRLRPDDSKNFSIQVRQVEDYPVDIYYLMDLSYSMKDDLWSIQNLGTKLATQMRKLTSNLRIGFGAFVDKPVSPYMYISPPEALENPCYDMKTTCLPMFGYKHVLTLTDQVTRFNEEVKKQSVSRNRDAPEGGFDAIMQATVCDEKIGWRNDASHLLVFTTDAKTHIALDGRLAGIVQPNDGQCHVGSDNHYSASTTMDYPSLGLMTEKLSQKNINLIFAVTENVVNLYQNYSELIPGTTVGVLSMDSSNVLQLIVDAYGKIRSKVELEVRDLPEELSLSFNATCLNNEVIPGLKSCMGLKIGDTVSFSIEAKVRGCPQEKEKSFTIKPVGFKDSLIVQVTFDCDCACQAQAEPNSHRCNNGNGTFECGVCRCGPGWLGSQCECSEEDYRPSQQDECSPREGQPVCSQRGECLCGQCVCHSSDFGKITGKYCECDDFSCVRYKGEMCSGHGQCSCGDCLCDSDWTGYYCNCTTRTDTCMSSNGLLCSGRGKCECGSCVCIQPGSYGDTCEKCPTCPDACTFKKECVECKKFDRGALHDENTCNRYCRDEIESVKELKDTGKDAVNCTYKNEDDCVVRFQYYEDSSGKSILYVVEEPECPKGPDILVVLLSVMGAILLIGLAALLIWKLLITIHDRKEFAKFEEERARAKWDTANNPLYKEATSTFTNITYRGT

CC[C@@]1(O)C(=O)OCc2c1cc1n(c2=O)Cc2c-1nc1ccccc1c2C=NOCCNC(=O)OCc1ccc(NC(=O)[C@H](CCCNC(N)=O)NC(=O)[C@H](C)NC(=O)COCCOCCOCC(=O)NCc2ccc(C[C@@H]3NC(=O)[C@@H](Cc4ccccc4)NC(=O)[C@H](CC(=O)O)NC(=O)CNC(=O)[C@H](CCCNC(=N)N)NC3=O)cc2)cc1 [ST3833] was tested, and the IC50 [1] was 95 ± 20 nM, the IC50 [2] was 2100 ± 200 nM and the IC50 [3] was 900 ± 50 nM. For the same compound, the IC50 [4] was 4600 ± 800 nM, the IC50 [5] was 78.4 ± 1.5 nM and the Ki [5] was 61 nM.
